Assay results reported in ChEMBL document CHEMBL1139568, “Carbonic anhydrase inhibitors. Inhibition of cytosolic/tumor-associated carbonic anhydrase isozymes I, II, IX, and XII with Schiff's bases incorporating chromone and aromatic sulfonamide moieties, and their zinc complexes” (Bioorg Med Chem Lett, 2005).

What was measured:
Carbonic anhydrase 9 = Carbonic anhydrase 9 (Homo sapiens, UniProt Q16790)
Description: Inhibition constant against human carbonic anhydrase IX

Carbonic anhydrase 1 = Carbonic anhydrase 1 (Homo sapiens, UniProt P00915)
Description: Inhibition constant against human carbonic anhydrase I

Carbonic anhydrase 2 = Carbonic anhydrase 2 (Homo sapiens, UniProt P00918)
Description: Inhibition constant against human carbonic anhydrase II

Carbonic anhydrase 12 = Carbonic anhydrase 12 (Homo sapiens, UniProt O43570)
Description: Inhibition constant against human carbonic anhydrase XII

[1] = tested as the Zn salt or complex

Sequence of Carbonic anhydrase 1 (P00915 whole entry): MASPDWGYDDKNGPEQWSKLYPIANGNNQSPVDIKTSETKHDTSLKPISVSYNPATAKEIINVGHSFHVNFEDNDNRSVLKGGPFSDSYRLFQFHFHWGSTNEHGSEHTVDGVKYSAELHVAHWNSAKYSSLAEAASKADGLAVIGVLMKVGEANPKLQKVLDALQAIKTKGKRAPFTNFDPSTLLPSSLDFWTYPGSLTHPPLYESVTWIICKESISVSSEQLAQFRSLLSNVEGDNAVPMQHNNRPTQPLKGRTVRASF
Sequence of Carbonic anhydrase 12 (O43570 whole entry): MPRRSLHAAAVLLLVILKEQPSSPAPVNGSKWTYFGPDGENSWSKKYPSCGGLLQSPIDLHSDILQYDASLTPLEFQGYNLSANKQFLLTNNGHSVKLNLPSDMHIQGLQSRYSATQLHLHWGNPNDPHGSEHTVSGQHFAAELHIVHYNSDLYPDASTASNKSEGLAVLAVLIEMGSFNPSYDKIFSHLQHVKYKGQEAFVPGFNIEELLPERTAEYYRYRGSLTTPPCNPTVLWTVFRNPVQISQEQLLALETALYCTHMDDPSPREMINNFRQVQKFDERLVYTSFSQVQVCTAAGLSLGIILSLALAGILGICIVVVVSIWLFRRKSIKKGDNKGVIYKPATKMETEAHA

SMILES | Ki (Carbonic anhydrase 9) [nM] | Ki (Carbonic anhydrase 9; [1]) [nM] | also measured
Cc1ccc2occ(/C=N/c3ccc(S(=O)(=O)N=C(N)N)cc3)c(=O)c2c1 | > 1000 |  | Ki (Carbonic anhydrase 1): > 1000 nM; Ki (Carbonic anhydrase 2): > 1000 nM; Ki (Carbonic anhydrase 12): > 1000 nM
Cc1ccc2occ(/C=N/c3cc(C(F)(F)F)c(S(N)(=O)=O)cc3S(N)(=O)=O)c(=O)c2c1 | 32 |  | 
Cc1ccc2occ(/C=N/CCc3ccc(S(N)(=O)=O)cc3)c(=O)c2c1 [listing 1 of 2 here] | 37 |  | 
NS(=O)(=O)c1ccc(C/N=C/c2coc3ccccc3c2=O)cc1 | 32 |  | 
Cc1ccc2occ(/C=N/c3ccc(S(N)(=O)=O)cc3)c(=O)c2c1 [listing 1 of 2 here] |  | 6.8 | 
Cc1ccc2occ(/C=N/CCc3ccc(S(N)(=O)=O)cc3)c(=O)c2c1 [listing 2 of 2 here] |  | 8.2 | 
NS(=O)(=O)c1ccc(NCc2coc3ccccc3c2=O)cc1 |  | 10 | 
NS(=O)(=O)c1ccc(CNCc2coc3ccccc3c2=O)cc1 |  | 8.1 | 
NS(=O)(=O)c1ccc(CCNCc2coc3ccccc3c2=O)cc1 |  | 7.3 | 
Cc1ccc2occ(CNc3ccc(S(N)(=O)=O)cc3)c(=O)c2c1 |  | 15 | 
Cc1ccc2occ(CNCc3ccc(S(N)(=O)=O)cc3)c(=O)c2c1 |  | 14 | 
Cc1ccc2occ(CNCCc3ccc(S(N)(=O)=O)cc3)c(=O)c2c1 |  | 12 | 
N=C(N)NS(=O)(=O)c1ccc(/N=C/c2coc3ccccc3c2=O)cc1 | > 1000 |  | Ki (Carbonic anhydrase 1): > 1000 nM; Ki (Carbonic anhydrase 2): > 1000 nM; Ki (Carbonic anhydrase 12): > 1000 nM
NS(=O)(=O)c1ccc(CC/N=C/c2coc3ccccc3c2=O)cc1 | 26 |  | 
Cc1ccc2occ(/C=N/c3ccc(S(N)(=O)=O)cc3)c(=O)c2c1 [listing 2 of 2 here] | 48 |  | 
NS(=O)(=O)c1ccc(C/N=C/c2coc3ccccc3c2=O)cc1 (stereo in doubt; 20) |  | > 1000 | 
NS(=O)(=O)c1ccc(C/N=C/c2coc3ccccc3c2=O)cc1 (stereo in doubt; 21) |  | 6.3 | 
